According to patent publication US6620961B1, “Biarylalkylenecarbamic acid derivatives and bacteriocides for agricultural and horticultural use” (Kumiai Chemical Industry Co., Ltd., priority 1997, dated 2003):

Legend:
[1] = system: Venturia inaequalis; assay: Test for Preventive Effect on Apple Scab; assay type: in vivo; parameters: key: A: No diseased area; B: Diseased area of less than 25%; C: Diseased area of at least 25% but less than 50%; Diseased area of at least 50%; details: 14 days after inoculation; for Evaluation (diseased area of the upper two inoculated leaves): apple seedlings (Kogyoku), 500 ppm active ingredient, 20 ml per pot; for Evaluation (diseased areas of the upper two of the inoculated leaves): apple seedlings, wettable powder at 500 ppm active ingredient, preventive
Procedure: [table] Test for Preventive Effect on Apple Scab 5 apple seeds (variety: Kogyoku) were sown in each 9 cm×9 cm polyvinyl chloride pot and grown in a greenhouse for 20 days. […] Then, the seedlings were inoculated with Venturia inaequalis spores in suspension by spraying and immediately placed in a moist chamber at 22° C. for 48 hours. Thereafter, the seedlings were placed in a greenhouse for development of the disease. 14 days after the inoculation, the diseased areas of the upper two of the inoculated leaves were observed and evaluated on the basis of the standards shown in Table 59.

[2] = system: Erysiphe graminis; assay: Test for Preventive Effect on Wheat Powdery Mildew; assay type: in vivo; parameters: key: A: No diseased area; B: Diseased area of less than 25%; C: Diseased area of at least 25% but less than 50%; Diseased area of at least 50%; details: wheat seedlings (Norin-61-go), 500 ppm active ingredient, 10 ml per pot, 10 days after inoculation
Procedure: [table] Test for Preventive Effect on Wheat Powdery Mildew 9 wheat seeds (variety: […] Then, the seedlings were inoculated with […] graminis spores in suspension and placed in a greenhouse at 25 to 30° C. 10 days after the inoculation, the total diseases area of the first leaves in each pot was observed and evaluated on the basis of the standards shown in Table 59. The results are shown in Tables 67 to 71.

| Structure (SMILES) | Evaluation (diseased area of the upper two inoculated leaves) [1] | Evaluation (total diseased area of the first leaves in each pot) [2] | Evaluation (diseased areas of the upper two of the inoculated leaves) [1] |
| --- | --- | --- | --- |
| COC(=O)NC(C)c1cccc(-c2ccc(C)cc2)c1 (racemic) [3-7] | A | A | – |
| COC(=O)NC(C)c1cccc(-c2ccc(C(F)(F)F)cc2)c1 (racemic) [3-17] | A | A | – |
| COC(=O)NC(C)c1cccc(-c2ccc(Cl)cc2Cl)c1 (racemic) [3-18] | A | A | – |
| COC(=O)NC(C)c1cc(-c2ccccc2)ccc1F (racemic) [3-26] | A | B (Diseased area of less than 25%) | – |
| COC(=O)NC(C)c1cc(-c2ccc(C)cc2)ccc1F (racemic) [3-32] | B (Diseased area of less than 25%) | B (Diseased area of less than 25%) | – |
| CCC(NC(=O)OC)c1cccc(-c2ccccc2)c1 (racemic) [3-101] | – | B (Diseased area of less than 25%) | – |
| CCC(NC(=O)OC)c1cccc(-c2ccc(Cl)cc2)c1 (racemic) [3-105] | – | B (Diseased area of less than 25%) | – |
| CCC(NC(=O)OC)c1cccc(-c2ccc(C)cc2)c1 (racemic) [3-107] | B (Diseased area of less than 25%) | B (Diseased area of less than 25%) | – |
| COC(=O)NCc1cccc(-c2ccccc2Cl)c1 [1-2] | – | A | A |
| COC(=O)NCc1cccc(-c2cccc(F)c2)c1 [1-6] | – | A | A |
| COC(=O)NCc1cccc(-c2ccccc2C)c1 [1-10] | – | A | A |
| CCc1cccc(-c2cccc(CNC(=O)OC)c2)c1 [1-13] | – | A | A |
| CCc1ccc(-c2cccc(CNC(=O)OC)c2)cc1 [1-14] | – | B (Diseased area of less than 25%) | A |
| COC(=O)NCc1cccc(-c2cccc(C(C)C)c2)c1 [1-17] | – | B (Diseased area of less than 25%) | A |
| COC(=O)NCc1cccc(-c2ccc(C(C)C)cc2)c1 [1-18] | – | A | A |
| COC(=O)NCc1cccc(-c2ccccc2OC)c1 [1-40] | – | A | A |
| COC(=O)NCc1cccc(-c2ccc(OC(F)(F)F)cc2)c1 [1-72] | – | A | A |
| COC(=O)NCc1cccc(-c2ccc(Cl)cc2Cl)c1 [1-117] | – | – | A |
| COC(=O)NCc1cccc(-c2ccc(F)c(F)c2)c1 [1-120] | – | A | A |

| Structure (SMILES) | Evaluation (diseased area of the upper two inoculated leaves) [1] | Evaluation (total diseased area of the first leaves in each pot) [2] | Evaluation (diseased areas of the upper two of the inoculated leaves) [1] |
| --- | --- | --- | --- |
| COC(=O)NCc1cccc(-c2ccc(F)c(Cl)c2)c1 [1-122] | – | A | A |
| COC(=O)NCc1cccc(-c2ccc(C)c([N+](=O)[O-])c2)c1 [1-137] | – | – | A |
| CCOC(=O)NCc1cccc(-c2ccccc2)c1 [1-146] | – | B (Diseased area of less than 25%) | B (Diseased area of less than 25%) |
| CCCCOC(=O)NCc1cccc(-c2ccccc2)c1 [1-148] | – | B (Diseased area of less than 25%) | – |
| COC(=O)N(C)Cc1cccc(-c2ccccc2)c1 [1-163] | – | A | A |
| CCN(Cc1cccc(-c2ccccc2)c1)C(=O)OC [1-165] | – | B (Diseased area of less than 25%) | A |
| CCCN(Cc1cccc(-c2ccccc2)c1)C(=O)OC [1-166] | – | B (Diseased area of less than 25%) | B (Diseased area of less than 25%) |
| C=CCN(Cc1cccc(-c2ccccc2)c1)C(=O)OC [1-168] | – | A | A |
| C#CCN(Cc1cccc(-c2ccccc2)c1)C(=O)OC [1-178, Methyl N-(3-phenylbenzyl)-N-(2-propynyl)carbamate] | – | A | A |
| COCN(Cc1cccc(-c2ccccc2)c1)C(=O)OC [1-192, Methyl N-methoxymethyl-N-(3-phenylbenzyl)carbamate] | – | A | A |
| COCN(Cc1cccc(-c2ccccc2C)c1)C(=O)OC [1-193] | – | B (Diseased area of less than 25%) | A |
| COCN(Cc1cccc(-c2cccc(C)c2)c1)C(=O)OC [1-194] | – | A | A |
| COCN(Cc1cccc(-c2ccc(C)cc2)c1)C(=O)OC [1-195] | – | A | A |
| COCN(Cc1cccc(-c2ccc(OC)cc2)c1)C(=O)OC [1-198] | – | A | A |
| COCN(Cc1cccc(-c2ccc(F)cc2)c1)C(=O)OC [1-201] | – | A | A |
| CN(C)C(=O)NCc1cccc(-c2ccccc2)c1 [1-262] | – | – | B (Diseased area of less than 25%) |
| COC(=O)NCc1cc(-c2ccc(C(F)(F)F)cc2)ccc1OC [2-344] | A | – | – |
| COC(=O)NCc1cc(-c2ccc(C(C)=O)cc2)ccc1Cl [2-451] | B (Diseased area of less than 25%) | – | – |
